Measurements as given in US20190374533A1, “COMPOUNDS AND METHODS FOR INHIBITING NHE-MEDIATED ANTIPORT IN THE TREATMENT OF DISORDERS ASSOCIATED WITH FLUID RETENTION OR SALT OVERLOAD AND GASTROINTESTINAL TRACT DISORDERS” (Ardelyx, Inc., priority 2008, published 2019).

Test: Determination of compound Cmax and AUC
Assay type: in vivo
Details: rat; Sprague-Dawley rats, oral gavage, serum 0.5-4 h; actual oral dose (mg/kg) given
Description: Sprague-Dawley rats were orally gavaged with test article (2.5 mg/kg) and serum was collected at 0.5, 1, 2 and 4 h. Serum samples were treated with acetonitrile, precipitated proteins removed by centrifugation and supernatants analyzed by LC/MS/MS and compared against a standard curve to determine compound concentration. All compounds were orally dosed at the dosage shown, and pharmacokinetic parameters determined as described in the text.

Structure (SMILES)	AUC [ng·h/mL]	Cmax [ng/mL]
CN1Cc2c(Cl)cc(Cl)cc2C(c2ccc(S(=O)(=O)NCCOCCOCCNC(=O)c3cc(N)cc(C(=O)NCCOCCOCCNS(=O)(=O)c4ccc(C5CN(C)Cc6c(Cl)cc(Cl)cc65)cc4)c3)cc2)C1.O=C(O)C(F)(F)F.O=C(O)C(F)(F)F.O=C(O)C(F)(F)F (stereo not drawn) [Example 186, 5-amino-N1,N3-bis(2-(2-(2-(4-(6,8-dichloro-2-methyl-1,2,3,4-tetrahydroisoquinolin-4-yl)phenylsulfonamido)ethoxy)ethoxy)ethyl)isophthalamide tris(2,2,2-trifluoroacetate)]	< 5	< 3.4
CN1Cc2c(Cl)cc(Cl)cc2C(c2cccc(S(=O)(=O)NCCOCCOCCOCCOCCOCCOCCOCCOCCOCCOCCN)c2)C1 (stereo not drawn) [Example 214, N-(32-amino-3,6,9,12,15,18,21,24,27,30-decaoxadotriacontyl)-3-(6,8-dichloro-2-methyl-1,2,3,4-tetrahydroisoquinolin-4-yl)benzenesulfonamide]	< 5	< 5
CN1Cc2c(Cl)cc(Cl)cc2C(c2cccc(S(=O)(=O)NCCOCCOCCNC(=O)NCCOCCOCCNS(=O)(=O)c3cccc(C4CN(C)Cc5c(Cl)cc(Cl)cc54)c3)c2)C1 (stereo not drawn) [Example 235, N,N′-(10-oxo-3,6,14,17-tetraoxa-9,11-diazanonadecane-1,19-diyl)bis(3-(6,8-dichloro-2-methyl-1,2,3,4-tetrahydroisoquinolin-4-yl)benzenesulfonamide)]	< 5	< 5

Second part, the molecule after the results:

AUC [ng·h/mL]	Cmax [ng/mL]	Structure (SMILES)
< 2	< 2	CN1Cc2c(Cl)cc(Cl)cc2C(c2cccc(S(=O)(=O)NCCOCCOCCOCCNC(=O)CCC(=O)NCCOCCOCCOCCNS(=O)(=O)c3cccc(C4CN(C)Cc5c(Cl)cc(Cl)cc54)c3)c2)C1 (stereo not drawn) [Example 181, N1,N4-bis(2-(2-(2-(2-(3-(6,8-dichloro-2-methyl-1,2,3,4-tetrahydroisoquinolin-4-yl)phenylsulfonamido)ethoxy)ethoxy)ethoxy)ethyl)succinamide]
< 2	< 2	CN(CC(=O)NCCOCCOCCNS(=O)(=O)c1ccc(C2CN(C)Cc3c(Cl)cc(Cl)cc32)cc1)CC(=O)NCCOCCOCCNS(=O)(=O)c1ccc(C2CN(C)Cc3c(Cl)cc(Cl)cc32)cc1 (stereo not drawn) [Example 185, 2,2′-(methylazanediyl)bis(N-(2-(2-(2-(4-(6,8-dichloro-2-methyl-1,2,3,4-tetrahydroisoquinolin-4-yl)phenylsulfonamido)ethoxy)ethoxy)ethyl)acetamide) tris(2,2,2-trifluoroacetate)]
< 1	< 1	CN1Cc2c(Cl)cc(Cl)cc2C(c2cccc(S(=O)(=O)NCCOCCOCCNC(=O)[C@H](O)[C@@H](O)C(=O)NCCOCCOCCNS(=O)(=O)c3cccc(C4CN(C)Cc5c(Cl)cc(Cl)cc54)c3)c2)C1 (stereo partly drawn) [Example 218, (2R,3R)—N1,N4-bis(2-(2-(2-(3-(6,8-dichloro-2-methyl-1,2,3,4-tetrahydroisoquinolin-4-yl)phenylsulfonamido)ethoxy)ethoxy)ethyl)-2,3-dihydroxysuccinamide]
